# Test results from patent publication US10493056B2, “Method of use of diterpenoid derivatives as anticancer agents” (Hong Kong Baptist University, priority 2016, dated 2019).
# Tests used:
# [1] = system: HCT-116 human colorectal carcinoma cell line; experiment: sulforhodamine B anti-proliferative assay, HCT-116; type: cell-based; conditions: HCT-116, 48 hours incubation, SRB; for IC50: Homo sapiens, read-out: Anti-proliferative activity, IC50 (concentration required to inhibit cell growth by 50%)
# Experimental: (§1) Human colorectal carcinoma HCT-116 and HT-29 cells are routinely maintained in McCoy's 5A medium (Gibco) whereas human melanoma A375 cells and human pancreatic adenocarcinoma PANC-1 cells are cultured in DMEM (Gibco) supplemented with 10% fetal bovine serum (Gibco), 1% penicillin-streptomycin (Gibco) in a 5% CO2, 95% air humidified atmosphere at 37° C.
# (§2) For the sulforhodamine B assay, different carcinoma cells were seeded in 96-well plates at a density of 5×10^3 cells/well and incubated with serial dilutions of ent-kaurene diterpenoids FA, FA1, FA2, FA3, FA4 or PA for 48 hours. After incubation, cells were treated with 50% trichloroacetic acid at 4° C. for at least 30 minutes for protein fixing. Cells were then washed with water 4 times prior to a complete dry down of the culture plate. To each well, 100 μL of 0.4% sulforhodamine B in 1% acetic acid was added. After 30-minute incubation at room temperature, cells were washed with 1% acetic acid 4 times. Fixed proteins were fully solubilized with 10 mM Tris base solution (pH 10, 200 μL/well). Spectrophotometric absorbance of samples were measured at 515 nm using a microplate reader (Bio-rad).
# [2] = system: A375 human melanoma cell line; experiment: sulforhodamine B anti-proliferative assay, A375; type: cell-based; conditions: A375, 48 hours incubation, SRB; for IC50: Homo sapiens, A-375, read-out: Anti-proliferative activity, IC50 (concentration required to inhibit cell growth by 50%)
# Experimental: as §1, §2
# [3] = system: HT-29 human colorectal carcinoma cell line; experiment: sulforhodamine B anti-proliferative assay, HT-29; type: cell-based; conditions: HT-29, 48 hours incubation, SRB; for IC50: Homo sapiens, read-out: Anti-proliferative activity, IC50 (concentration required to inhibit cell growth by 50%)
# Experimental: as §1, §2
# [4] = system: PANC-1 human pancreatic ductal adenocarcinoma cell line; experiment: sulforhodamine B anti-proliferative assay, PANC-1; type: cell-based; conditions: PANC-1, 48 hours incubation, SRB; for IC50: Homo sapiens, read-out: Anti-proliferative activity, IC50 (concentration required to inhibit cell growth by 50%)
# Experimental: as §1, §2
# [5] = system: HCT-116 colon carcinoma cell-bearing nude mice; experiment: HCT-116 xenograft experiment in nude mice; type: in vivo, male BALB/c nude mice; conditions: for growth of xenograft tumor in terms of volume: 20 mg/kg i.p. every other day for 21 days, compared to paclitaxel 10 mg/kg (FIG. 4, FIG. 6)
# Experimental: For the xenograft experiment, HCT-116 cells were implanted subcutaneously in the right and left flanks (1×10^6 cells in 100 μL) of male BALB/c nude mice (n=10/group), which were SPF class and aged 6-7 weeks old weighing between 20 g-25 g. Tumor size was monitored by measuring two perpendicular diameters with a caliper every other day. When tumors were formed to approximately 100 mm^3 seven days after the injection of HCT-116 cells, FA3 or PA was administered (20 mg/kg, every other day by intraperitoneal injection for a total of 21 days). To the paclitaxel group, injection of paclitaxel was given at 10 mg/kg to the nude mice whilst the vehicle group merely received the 2.5% EtOH and Cremphor EL solution, which was the dissolving solution for FA3, PA and paclitaxel. Tumor volume and body weight of mice were recorded at indicated time points during the course of experiment. Tumor volume was calculated as volume=length×width^2×0.5. Weight of tumor xenograft was assessed at the time of sacrificed.
# The data are presented as mean±standard error of the mean (S.E.M.). Statistical differences among the experimental groups were tested by one-way analysis of variance (ANOVA). P-value<0.05 was considered as statistically significant.
# [6] = system: HCT-116 cells; experiment: flow cytometric annexin V-FITC/propidium iodide apoptosis assay; type: cell-based, human; conditions: HCT-116, 0.25, 0.5 and 1.0 μg/mL for 48 hours, concentration-dependent (FIG. 2)
# Experimental: From the flow cytometric analysis, the staining percentage of annexin V/FITC and propidium iodide (PI) is detected as percentage at Q1: necrosis (upper left quarter); Q2: late apoptosis (upper right quarter); Q3: live (lower left quarter); Q4: early apoptosis (lower right quarter).
# For the flow cytometric assay, HCT-116 cells were seeded in 6-well plates at a density of 1×10^5 cells/well and incubated with serial dilutions of FA3 for 48 hours. Cells were collected by centrifugation, re-suspended in 500 μL of binding buffer containing 5 μL of propidium iodide and 5 μL of annexin V-FITC, and incubated for 15 minutes in dark. Signals of the cell suspension were then analyzed using a flow cytometer (BD) for apoptotic events.
"Anti-proliferative activity, IC50 (concentration required to inhibit cell growth by 50%) [1] [µg/mL]","Anti-proliferative activity, IC50 (concentration required to inhibit cell growth by 50%) [2] [µg/mL]","Anti-proliferative activity, IC50 (concentration required to inhibit cell growth by 50%) [3] [µg/mL]","Anti-proliferative activity, IC50 (concentration required to inhibit cell growth by 50%) [4] [µg/mL]",IC50 [1] [µg/mL],IC50 [2] [µg/mL],IC50 [3] [µg/mL],IC50 [4] [µg/mL],SMILES,growth of xenograft tumor in terms of volume [5],degree of apoptosis [6],"growth of xenograft tumor in terms of weight ([5]; 20 mg/kg i.p. every other day, day 21, compared to paclitaxel 10 mg/kg (FIG. 3))","change of body weight ([5]; 21-day administration, tumor-bearing nude mice (FIG. 5))"
0.2702,0.8737,0.4194,0.4396,,,,,"C=C1C(=O)[C@]23[C@H](O)C[C@@H]4C(C)(C)CCC[C@]45CO[C@](O)(C[C@@H]1[C@H]2O)[C@@H]53 [PA, pseudoirroratin A, reference compound]",not as efficient as paclitaxel,,,
,,,,0.98,> 2,> 2,> 2,C=C1C(=O)[C@@]23[C@@H]4OC(C)(C)O[C@@H]2C[C@@H]2C(C)(C)CCC[C@]25CO[C@](O)(C[C@@H]14)[C@@H]53 [FA4],,,,
,,,,> 2,> 2,> 2,> 2,C=C1C(=O)[C@@]23[C@@H]4OC(C)(C)O[C@@H]2C[C@@H]2C(C)(C)CCC[C@@]2(COC(C)=O)[C@@H]3C(=O)C[C@@H]14 [FA2],,,,
0.7215,1.624,0.9732,1.024,,,,,"C=C1C(=O)[C@@]23C(O)C[C@@H]4C(C)(C)CCCC4(COC(C)=O)[C@@H]2[C@@H](O)C[C@@H]1[C@H]3O (stereo partly shown) [FA, flexicaulin A, reference compound]",,,,
,,,,0.274,0.668,0.424,0.413,C=C1C(=O)[C@@]23[C@H](O)C[C@@H]4C(C)(C)CCC[C@@]4(COC(C)=O)[C@@H]2C(=O)C[C@@H]1[C@H]3O [FA3],more sufficiently restrained,Substantial increase in the degree of apoptosis,more sufficiently restrained,does not lead to a significant loss of body weight
